These are literature values, as cited in patent US20220000966A1, “COMPOSITION AND METHOD FOR TREATING THE LUNGS” (priority 2018, published 2022).

Like-named read-outs stand apart in the source and are kept apart here.

The subject of data set [1] is patients with reversible obstructive ventilatory disorders.
For data set [2], the system named is lymphocytes. Conditions: 1.5 μg/mL.
For data set [3], the system named is monocytes.
In data set [4] the test system is patients with steroid-dependent bronchial asthma.
Data set [5] relates to human subjects. Conditions: octanol on the neck of human subjects followed by 1,8-cineole.
Data set [6] deals with human TRPM8 (hTRPM8) (Homo sapiens, UniProt Q7Z2W7).
Data set [7] has as its target T1, TRPA1 (Homo sapiens, UniProt O75762).
Data set [8] deals with blood monocytes.
Data set [9] concerns the target T1, TRPA1. The source holds these as a separate data set.
Data set [10] deals with primary human bronchial epithelial cells. Conditions: cigarette smoke extract, pretreatment.
The test system of data set [11] is human lung cancer A549.
The test system of data set [12] is leukemia K562 cells. Conditions: in vitro and ex vivo.
Data set [13] deals with airway inflammation in asthma. Conditions: in vivo.
For data set [14] the following is noted: orally 600 mg/day, COPD patients.
The subject of data set [15] is particulate air pollution-induced inflammation. Conditions: in vivo.
Data set [16] concerns human lung epithelial cells (A-549), fibroblasts (HFL1), and lymphoma cells (U-937).
In data set [17] the test system is cardiomyocyte.
In data set [18] the test system is patients. The following applies: inhaled.
The conditions of data set [19]: oral administration, healthy subjects.
For data set [20], the system named is human MonoMac6 cells. The following applies: cells pretreated.
The test system of data set [21] is Guinea pigs. The following applies: pretreatment.
In data set [22] the test system is mice. The following applies: injection.
The subject of data set [23] is rats. Conditions: 50 mg/kg orally each day, smoke 1 hr/day for 56 days.
[24] abbreviates: 200 mg orally 3 times per day for 12 weeks.
Where [25] appears, read: patients with bronchial asthma, day 4, 1,8-cineole capsules 200 mg 3 times/day.

T1 sequence (O75762 whole entry): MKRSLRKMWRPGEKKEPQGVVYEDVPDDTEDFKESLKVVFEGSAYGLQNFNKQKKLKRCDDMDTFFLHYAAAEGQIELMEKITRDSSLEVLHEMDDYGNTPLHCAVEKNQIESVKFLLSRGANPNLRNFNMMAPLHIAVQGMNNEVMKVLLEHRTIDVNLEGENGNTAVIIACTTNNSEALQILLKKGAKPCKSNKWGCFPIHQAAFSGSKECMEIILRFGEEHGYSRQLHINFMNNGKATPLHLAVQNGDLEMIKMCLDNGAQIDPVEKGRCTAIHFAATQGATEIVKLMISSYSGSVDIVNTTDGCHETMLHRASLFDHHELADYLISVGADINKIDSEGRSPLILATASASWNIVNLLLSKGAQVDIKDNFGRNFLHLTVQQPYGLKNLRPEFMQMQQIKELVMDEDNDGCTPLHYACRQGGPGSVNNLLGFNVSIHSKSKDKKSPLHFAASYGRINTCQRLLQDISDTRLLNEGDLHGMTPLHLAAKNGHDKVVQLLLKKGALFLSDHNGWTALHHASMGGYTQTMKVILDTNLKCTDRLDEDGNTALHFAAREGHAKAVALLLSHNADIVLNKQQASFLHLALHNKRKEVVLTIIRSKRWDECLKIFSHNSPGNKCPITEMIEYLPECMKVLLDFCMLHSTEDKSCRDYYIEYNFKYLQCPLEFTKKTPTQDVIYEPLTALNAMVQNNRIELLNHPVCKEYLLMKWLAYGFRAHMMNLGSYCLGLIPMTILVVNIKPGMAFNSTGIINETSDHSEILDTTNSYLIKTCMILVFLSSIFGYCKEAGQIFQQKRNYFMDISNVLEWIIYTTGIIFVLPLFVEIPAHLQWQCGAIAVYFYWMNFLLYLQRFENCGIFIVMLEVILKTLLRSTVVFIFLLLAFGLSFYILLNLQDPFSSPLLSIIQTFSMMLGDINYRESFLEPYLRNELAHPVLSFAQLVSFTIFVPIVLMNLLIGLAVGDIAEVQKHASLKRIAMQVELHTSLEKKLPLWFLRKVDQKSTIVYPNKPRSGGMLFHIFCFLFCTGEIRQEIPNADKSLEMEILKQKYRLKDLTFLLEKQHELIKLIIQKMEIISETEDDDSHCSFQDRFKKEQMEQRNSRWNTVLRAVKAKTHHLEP
Chain of human TRPM8 (hTRPM8) (Q7Z2W7 whole entry): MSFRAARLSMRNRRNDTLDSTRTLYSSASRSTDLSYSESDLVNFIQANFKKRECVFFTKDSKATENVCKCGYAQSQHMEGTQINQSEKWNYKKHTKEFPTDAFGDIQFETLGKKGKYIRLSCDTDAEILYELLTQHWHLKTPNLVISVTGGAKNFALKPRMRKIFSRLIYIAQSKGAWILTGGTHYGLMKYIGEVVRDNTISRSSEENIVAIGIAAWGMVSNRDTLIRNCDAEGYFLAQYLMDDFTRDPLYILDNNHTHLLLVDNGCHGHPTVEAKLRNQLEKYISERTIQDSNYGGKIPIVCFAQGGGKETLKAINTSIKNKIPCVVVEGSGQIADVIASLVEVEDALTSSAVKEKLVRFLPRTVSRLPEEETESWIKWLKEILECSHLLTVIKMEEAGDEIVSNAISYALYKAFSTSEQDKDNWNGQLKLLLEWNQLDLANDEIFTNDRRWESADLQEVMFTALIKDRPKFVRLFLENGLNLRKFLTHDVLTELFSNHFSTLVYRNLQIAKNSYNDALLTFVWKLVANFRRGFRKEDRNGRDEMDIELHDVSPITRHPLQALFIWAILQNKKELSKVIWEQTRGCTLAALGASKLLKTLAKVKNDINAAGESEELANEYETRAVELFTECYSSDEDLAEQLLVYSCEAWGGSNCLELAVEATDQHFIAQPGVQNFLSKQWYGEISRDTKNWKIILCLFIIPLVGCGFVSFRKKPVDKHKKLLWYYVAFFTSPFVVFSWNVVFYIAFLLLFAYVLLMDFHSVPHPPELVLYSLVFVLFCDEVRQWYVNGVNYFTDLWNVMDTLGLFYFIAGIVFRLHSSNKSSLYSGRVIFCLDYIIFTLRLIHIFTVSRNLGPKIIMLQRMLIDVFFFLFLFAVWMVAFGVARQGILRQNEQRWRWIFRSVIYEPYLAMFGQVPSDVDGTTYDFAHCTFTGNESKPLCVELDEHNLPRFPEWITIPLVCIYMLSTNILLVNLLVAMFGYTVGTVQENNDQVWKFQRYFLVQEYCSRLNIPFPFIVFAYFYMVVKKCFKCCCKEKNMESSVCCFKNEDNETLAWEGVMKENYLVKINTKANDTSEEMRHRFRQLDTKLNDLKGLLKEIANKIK

As for `CC12CCC(CC1)C(C)(C)O2` [1,8-cineole], the “change of airway resistance” value in [1] (treatment duration of eight weeks) was −21%. For the same molecule, in data set [1] (treatment duration of one week), the “change of airway resistance” value is on record as −23%. The “inhibition of IL-1β production in lymphocytes” value in data set [2] was 84%. In data set [3], the “inhibition of production of TNF-α, IL-1β, LTB4 and TXB2” value was “dose-dependent and highly significant inhibition”. Further, in [4] (setting [24]), the “reduction in daily prednisolone dosage tolerated” value was 36% and the “reduction in daily prednisolone dosage, mean” value was 3.75 mg. The “patients who achieved a reduction of oral steroids” value in data set [4] (1,8-cineole group) was “Twelve of 16”. In addition, the irritation of octanol entry in [5] is given as “significantly reduced”. The TRPM8 activation result in [6] is recorded as “activates”. In addition, in data set [7], the “action on hTRPA1” value was “antagonist”. Also, in data set [8] (healthy volunteers, day 4), the “change of LTB4 production from monocytes ex vivo” value is reported as −57.9% and the “change of PGE2 production from monocytes ex vivo” value was −42.7%. In data set [8] (setting [25]), the “change of LTB4 production from monocytes ex vivo” value is reported as −40.3% and the “change of PGE2 production from monocytes ex vivo” value is −31.3%.

Consider `C=C1CC/C=C(\C)CC[C@@H]2[C@@H]1CC2(C)C` [BCP, β-caryophyllene], for which the “action on TRPA1” value in data set [9] is on record as “agonist”.

On to `CC(C)c1ccc(NC(=O)Cn2cnc3c2c(=O)n(C)c(=O)n3C)cc1` [HC-030031], for which, in data set [10], the “Ca^2+ influx” value is recorded as “decrease in Ca^2+ influx was similar”.

For the molecule `CCNC(=O)CC[C@H](N)C(=O)O` [L-theanine], the “migration and invasion of A549 cells” value in data set [11] is “significantly inhibited”. Moreover, the “growth of human lung cancer A549 cells” value in data set [11] (in vitro and ex vivo) is given as “significantly suppressed”. In addition, in data set [12], the “growth of leukemia K562 cells” value is on record as “significantly suppressed”. In data set [13], the “inflammatory cells in bronchoalveolar lavage fluid (BALF)” value is on record as “dramatically attenuated”; the “production of IgE, MCP-1, IL-4, IL-5, IL-13, TNF-α and INF-γ in BALF” value is given as “significantly decreased”.

In the case of `CC(=O)N[C@@H](CS)C(=O)O` [N-acetyl cysteine], the “sputum eosinophil cationic protein concentrations and adhesion of polymorphonuclear leukocytes” value in data set [14] is reported as “reduced”. For the same molecule, the “Ca^2+ influx” value in data set [10] is on record as “prevented”. For the same molecule, in data set [15], the “particulate air pollution-induced inflammation” value is reported as “effectively prevented”.

As for `COc1ccc2cc3[n+](cc2c1OC)CCc1cc2c(cc1-3)OCO2` [berberine], the “inhibition of inflammatory agents-induced cytokine production” value in data set [16] was “dose-dependent and cell type-independent”.

In the case of `COc1cc(O)cc(O)c1C(=O)/C=C/c1ccccc1` [cardamonin], the cardiomyocyte constriction result in [17] was “nor did it impair”.

On to `N[C@@H](CCC(=O)N[C@@H](CS)C(=O)NCC(=O)O)C(=O)O` [glutathione, γ-L-glutamyl-L-cysteinyl-glycine], for which, in data set [18], the “FEV1 change from baseline” value is −19%, the induced breathlessness entry is recorded as “three”, the induced cough entry is on record as “four” and the “total pulmonary resistance change from baseline” value is listed as “+61%”. Besides, in [19], the “increase of plasma glutathione levels” value was “ineffective”. Also, where the note is “aerosol nebulizer”, the “period for which epithelial lung fluid glutathione remained elevated” value was 2 h. Also, under “aerosol nebulizer, 4 mL of 150 mg/mL over 25 minutes”, the “glutathione epithelial lung fluid concentration” value was “about 337 μM”. Where the note is “intravenously administered 600 mg”, the “glutathione concentration increase in epithelial lung fluid” value is “no measurable glutathione concentration increases”. In data set [20], the “cigarette smoke-induced reduction in HDAC levels” value is reported as “reversed”. Also, the IL-8 release entry in [20] (cigarette smoke extract) is given as “significantly inhibited”.

Regarding `CC1CCC(C(C)C)C(O)C1` (centres unmarked) [menthol, reference compound], in data set [6], the TRPM8 activation result is listed as “activation”. Moreover, in [7], the TRPA1 activation result is on record as “activated”.

Consider `CC1=CC(=O)C(C(C)C)=CC1=O` [thymoquinone], for which, in data set [21], the TNF-α level result is “significantly reduced”, the “bronchoalveolar lavage fluid Leukotriene B4 (LTB4) levels” value is listed as “did not significantly change”, the malondialdehyde level result is reported as “significantly reduced” and the “neutrophil elastase (NE) level” value is listed as “significantly reduced”. Besides, the chronic inflammatory changes result in data set [22] is “reduction”.

As for epigallocatechin-3-gallate, the “cigarette smoke-induced oxidative stress, neutrophilic inflammation, airway mucus production and collagen deposition” value in data set [23] is “ameliorated”. Also, in data set [21], the TNF-α level entry is reported as “significantly reduced”, the “bronchoalveolar lavage fluid Leukotriene B4 (LTB4) levels” value is recorded as “significantly reduced”, the glutathione peroxidase activity entry is “increase” and the “myeloperoxidase in lung tissue homogenate” value is “significantly reduced”. In [21], the “neutrophil elastase (NE) level” value is recorded as “significantly reduced” and the superoxide dismutase activity entry is recorded as “not significantly affected”.
